Assay results: article PMC9927415, “Tyrosine Kinase Inhibitors Display Potent Activity against Cryptosporidium parvum” (Microbiology Spectrum, 2022)

What was measured:
Assay in all cases: KINOMEscan competitive binding, whole panel
panel of 203 kinases [1] = molecular target: T1, panel of 203 kinases (Homo sapiens, UniProt P36896); settings: 10 µM, n=1; kinase ACVR1B; read-out: Percent inhibition ACVR1B
T1 construct: purchased DiscoverX (KINOMEscan)
T1 sequence (P36896 24-505): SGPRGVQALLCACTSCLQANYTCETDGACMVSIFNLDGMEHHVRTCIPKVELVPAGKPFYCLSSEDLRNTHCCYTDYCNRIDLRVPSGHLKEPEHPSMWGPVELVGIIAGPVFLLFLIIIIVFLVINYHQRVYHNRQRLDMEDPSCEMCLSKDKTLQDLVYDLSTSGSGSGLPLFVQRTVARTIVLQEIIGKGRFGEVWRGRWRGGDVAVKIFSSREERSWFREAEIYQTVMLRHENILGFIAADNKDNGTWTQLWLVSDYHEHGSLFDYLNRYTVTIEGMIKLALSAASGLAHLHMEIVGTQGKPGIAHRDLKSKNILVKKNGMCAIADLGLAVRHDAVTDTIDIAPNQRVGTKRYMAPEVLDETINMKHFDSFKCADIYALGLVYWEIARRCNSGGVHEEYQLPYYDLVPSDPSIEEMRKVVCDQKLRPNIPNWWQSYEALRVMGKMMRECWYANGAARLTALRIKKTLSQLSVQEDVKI
Method in brief: (§1)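 First, kinases were produced as T7 bacteriophage fusion proteins. Then compounds were added to compete them off probe ligands immobilized on a solid support at the ATP site. Finally, bound kinase was measured and converted to percentage inhibition.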

panel of 203 kinases [2] = molecular target: T2, panel of 203 kinases (Homo sapiens, UniProt O43293); settings: 10 µM, n=1; kinase DAPK3; read-out: Percent inhibition DAPK3
T2 construct: purchased DiscoverX (KINOMEscan)
T2 sequence (O43293 whole entry): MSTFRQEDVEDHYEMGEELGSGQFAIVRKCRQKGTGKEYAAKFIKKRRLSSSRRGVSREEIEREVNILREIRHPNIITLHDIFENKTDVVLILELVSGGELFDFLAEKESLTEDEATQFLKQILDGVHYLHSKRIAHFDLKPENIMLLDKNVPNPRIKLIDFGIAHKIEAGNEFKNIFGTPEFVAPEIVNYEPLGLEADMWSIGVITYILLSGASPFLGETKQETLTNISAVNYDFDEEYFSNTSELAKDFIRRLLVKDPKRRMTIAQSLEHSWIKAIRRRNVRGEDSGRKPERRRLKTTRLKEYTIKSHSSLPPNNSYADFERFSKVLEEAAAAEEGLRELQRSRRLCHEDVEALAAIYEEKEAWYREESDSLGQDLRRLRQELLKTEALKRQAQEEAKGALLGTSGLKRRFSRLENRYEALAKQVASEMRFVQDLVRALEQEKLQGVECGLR
Method in brief: as §1

panel of 203 kinases [3] = molecular target: T3, panel of 203 kinases (Homo sapiens, UniProt P54756); settings: 10 µM, n=1; kinase EPHA5; read-out: Percent inhibition EPHA5
T3 construct: purchased DiscoverX (KINOMEscan)
T3 sequence (P54756 25-1037): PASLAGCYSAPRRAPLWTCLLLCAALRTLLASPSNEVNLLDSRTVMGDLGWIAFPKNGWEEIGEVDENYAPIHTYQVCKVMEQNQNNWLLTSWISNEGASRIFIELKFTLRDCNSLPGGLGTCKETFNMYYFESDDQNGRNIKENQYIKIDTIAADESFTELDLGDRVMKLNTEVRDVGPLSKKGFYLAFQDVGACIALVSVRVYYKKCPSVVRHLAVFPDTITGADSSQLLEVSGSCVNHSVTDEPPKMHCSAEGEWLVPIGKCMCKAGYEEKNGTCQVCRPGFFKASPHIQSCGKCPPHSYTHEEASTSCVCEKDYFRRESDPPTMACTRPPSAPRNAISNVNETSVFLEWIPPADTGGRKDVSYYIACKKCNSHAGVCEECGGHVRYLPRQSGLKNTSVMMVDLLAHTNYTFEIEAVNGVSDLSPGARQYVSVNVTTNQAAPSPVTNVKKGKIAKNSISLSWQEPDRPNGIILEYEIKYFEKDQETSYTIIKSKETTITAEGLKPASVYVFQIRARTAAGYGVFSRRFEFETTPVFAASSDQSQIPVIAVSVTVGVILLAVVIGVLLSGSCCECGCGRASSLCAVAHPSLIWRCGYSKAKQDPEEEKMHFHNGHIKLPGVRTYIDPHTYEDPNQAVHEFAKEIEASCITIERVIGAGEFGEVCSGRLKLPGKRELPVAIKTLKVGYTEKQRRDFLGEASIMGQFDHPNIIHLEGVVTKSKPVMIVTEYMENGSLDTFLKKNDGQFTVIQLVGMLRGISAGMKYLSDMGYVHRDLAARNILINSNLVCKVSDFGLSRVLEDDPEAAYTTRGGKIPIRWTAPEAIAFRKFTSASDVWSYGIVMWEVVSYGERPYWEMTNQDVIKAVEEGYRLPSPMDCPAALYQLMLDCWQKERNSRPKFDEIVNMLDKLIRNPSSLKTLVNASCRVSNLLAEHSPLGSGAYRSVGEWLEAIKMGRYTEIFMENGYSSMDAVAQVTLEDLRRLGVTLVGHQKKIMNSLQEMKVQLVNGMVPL
Method in brief: as §1

panel of 203 kinases [4] = molecular target: T4, panel of 203 kinases (Homo sapiens, UniProt P14616); settings: 10 µM, n=1; kinase INSRR; read-out: Percent inhibition INSRR
T4 construct: purchased DiscoverX (KINOMEscan)
T4 sequence (P14616 27-1297): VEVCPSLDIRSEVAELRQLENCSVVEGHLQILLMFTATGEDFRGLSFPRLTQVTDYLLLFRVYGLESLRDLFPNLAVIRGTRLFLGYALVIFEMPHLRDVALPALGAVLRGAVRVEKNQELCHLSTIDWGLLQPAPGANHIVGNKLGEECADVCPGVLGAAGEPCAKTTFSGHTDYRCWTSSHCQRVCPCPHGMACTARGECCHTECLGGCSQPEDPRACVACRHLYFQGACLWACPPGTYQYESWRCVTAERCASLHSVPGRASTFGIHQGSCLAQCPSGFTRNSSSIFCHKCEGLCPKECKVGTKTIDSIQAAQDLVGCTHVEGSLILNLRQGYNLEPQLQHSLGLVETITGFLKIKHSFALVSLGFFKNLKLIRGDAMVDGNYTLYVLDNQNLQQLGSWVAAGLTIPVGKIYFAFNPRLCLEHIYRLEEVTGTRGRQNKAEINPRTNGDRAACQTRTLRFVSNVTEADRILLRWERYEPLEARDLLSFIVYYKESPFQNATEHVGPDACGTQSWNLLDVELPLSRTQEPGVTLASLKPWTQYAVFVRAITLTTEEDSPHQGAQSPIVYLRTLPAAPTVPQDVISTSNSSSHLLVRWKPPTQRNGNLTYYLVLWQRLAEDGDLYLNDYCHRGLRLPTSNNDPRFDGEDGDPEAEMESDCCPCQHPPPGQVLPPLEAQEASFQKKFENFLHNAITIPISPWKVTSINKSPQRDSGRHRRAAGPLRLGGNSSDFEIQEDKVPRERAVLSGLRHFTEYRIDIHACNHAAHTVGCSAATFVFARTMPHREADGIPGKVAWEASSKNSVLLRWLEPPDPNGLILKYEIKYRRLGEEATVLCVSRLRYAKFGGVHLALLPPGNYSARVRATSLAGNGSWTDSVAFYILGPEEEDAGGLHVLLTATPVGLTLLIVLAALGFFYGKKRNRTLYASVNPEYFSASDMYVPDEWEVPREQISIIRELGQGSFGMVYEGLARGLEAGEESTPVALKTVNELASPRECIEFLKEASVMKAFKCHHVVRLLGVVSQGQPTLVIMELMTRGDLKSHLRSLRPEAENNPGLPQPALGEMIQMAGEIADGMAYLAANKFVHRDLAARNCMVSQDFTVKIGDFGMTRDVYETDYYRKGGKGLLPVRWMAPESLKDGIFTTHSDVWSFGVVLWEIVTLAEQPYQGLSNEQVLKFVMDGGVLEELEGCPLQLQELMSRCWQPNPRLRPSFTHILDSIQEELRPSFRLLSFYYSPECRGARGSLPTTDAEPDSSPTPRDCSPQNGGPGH
Method in brief: as §1

panel of 203 kinases [5] = molecular target: T5, panel of 203 kinases (Homo sapiens, UniProt Q9UIK4); settings: 10 µM, n=1; kinase DAPK2; read-out: Percent inhibition DAPK2
T5 construct: purchased DiscoverX (KINOMEscan)
T5 sequence (Q9UIK4 whole entry): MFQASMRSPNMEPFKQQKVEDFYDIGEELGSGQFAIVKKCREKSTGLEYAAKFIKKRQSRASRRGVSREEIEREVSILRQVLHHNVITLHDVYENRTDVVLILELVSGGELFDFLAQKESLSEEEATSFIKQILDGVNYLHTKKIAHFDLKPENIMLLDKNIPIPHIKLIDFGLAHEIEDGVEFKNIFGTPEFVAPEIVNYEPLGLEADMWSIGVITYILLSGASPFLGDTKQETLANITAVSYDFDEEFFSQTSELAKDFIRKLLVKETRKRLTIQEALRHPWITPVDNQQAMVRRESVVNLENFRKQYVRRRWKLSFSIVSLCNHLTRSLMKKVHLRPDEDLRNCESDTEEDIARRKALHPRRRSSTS
Method in brief: as §1

panel of 203 kinases [6] = molecular target: T6, panel of 203 kinases (Homo sapiens, UniProt Q9UF33); settings: 10 µM, n=1; kinase EPHA6; read-out: Percent inhibition EPHA6
T6 construct: purchased DiscoverX (KINOMEscan)
T6 sequence (Q9UF33 23-1036): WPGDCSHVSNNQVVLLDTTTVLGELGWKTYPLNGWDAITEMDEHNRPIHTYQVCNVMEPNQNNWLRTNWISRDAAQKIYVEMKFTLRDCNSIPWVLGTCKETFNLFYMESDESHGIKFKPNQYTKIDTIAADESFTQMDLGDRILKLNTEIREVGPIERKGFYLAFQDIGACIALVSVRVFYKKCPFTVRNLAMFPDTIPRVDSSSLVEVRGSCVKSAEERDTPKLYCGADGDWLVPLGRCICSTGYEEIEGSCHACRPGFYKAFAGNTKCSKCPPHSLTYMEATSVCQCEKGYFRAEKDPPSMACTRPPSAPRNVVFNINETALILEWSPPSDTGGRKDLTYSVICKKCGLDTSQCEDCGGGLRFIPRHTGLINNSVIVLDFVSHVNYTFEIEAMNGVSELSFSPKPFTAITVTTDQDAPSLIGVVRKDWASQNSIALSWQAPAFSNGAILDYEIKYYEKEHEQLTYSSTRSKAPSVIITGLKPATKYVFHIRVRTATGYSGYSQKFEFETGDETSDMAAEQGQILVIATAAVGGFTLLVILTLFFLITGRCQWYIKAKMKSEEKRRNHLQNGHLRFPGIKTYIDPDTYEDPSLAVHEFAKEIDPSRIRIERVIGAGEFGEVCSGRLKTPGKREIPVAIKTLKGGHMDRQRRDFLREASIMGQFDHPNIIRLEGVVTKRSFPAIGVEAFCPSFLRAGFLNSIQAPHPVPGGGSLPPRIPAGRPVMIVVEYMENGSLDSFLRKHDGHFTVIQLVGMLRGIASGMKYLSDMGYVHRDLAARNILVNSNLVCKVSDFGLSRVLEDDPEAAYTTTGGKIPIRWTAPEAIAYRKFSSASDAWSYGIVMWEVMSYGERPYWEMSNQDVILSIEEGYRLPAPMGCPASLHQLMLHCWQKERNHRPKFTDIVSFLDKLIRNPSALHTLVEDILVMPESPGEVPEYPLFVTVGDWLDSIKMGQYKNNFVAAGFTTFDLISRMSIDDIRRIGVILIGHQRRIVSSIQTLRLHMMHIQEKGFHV
Method in brief: as §1

Structure (SMILES) | inhibition at 10 µM (panel of 203 kinases [1]) [%] | inhibition at 10 µM (panel of 203 kinases [2]) [%] | inhibition at 10 µM (panel of 203 kinases [3]) [%] | inhibition at 10 µM (panel of 203 kinases [4]) [%] | inhibition at 10 µM (panel of 203 kinases [5]) [%] | inhibition at 10 µM (panel of 203 kinases [6]) [%]
Cc1ccc(O)cc1Nc1ccnc(Nc2cccc(C(N)=O)c2)n1 [Compound 3] | 96.5 | 0 | 100 | 0 | 0 | 100
Cc1ccc(O)cc1N(C)c1ccnc(Nc2cccc(S(N)(=O)=O)c2)n1 [Compound 4] | 99 | 0 | 100 | 0 | 0 | 100
CN1CCN(c2ccc(Nc3nccc(-c4cnn5ncccc45)n3)cc2C#N)CC1 [Compound 1] | 77.1 | 98.5 | 80.2 | 99.2 | 92.2 | 0
Clc1ccc(Nc2ncc(-c3ccccc3)s2)cc1 [Compound 10] | 0 | 0 | 0 | 0 | 0 | 0
Nc1ncc2c(-c3ccncc3)c[nH]c2n1 [Compound 11] | 0 | 0 | 0 | 0 | 0 | 0
Fc1cccc(COc2ccc(Nc3ncnc4c3CN(CCN3CCOCC3)CC4)cc2Cl)c1 [Compound 6] | 0 | 0 | 0 | 0 | 0 | 0
COc1ccc(Nc2nccc(-c3cnn4ncccc34)n2)cc1 [Compound 2] | 0 | 0 | 91.8 | 87.2 | 0 | 65.1
C[C@@H](Oc1cc(-c2cnc3ccccn23)sc1C(N)=O)c1ccccc1Cl [Compound 8] | 0 | 89.3 | 0 | 0 | 88.3 | 0
COc1cc(Nc2nccc(-c3sc(N)nc3-c3cccc(NC(=O)c4c(F)cccc4F)c3)n2)cc(OC)c1OC [Compound 7] | 74.9 | 0 | 100 | 97.8 | 0 | 100
c1ccc(COc2cccc(-c3ccnc4[nH]ccc34)c2)cc1 [Compound 9] | 0 | 0 | 0 | 0 | 0 | 0
